In US20240158446A1, “CYCLIC COMPOUND HAVING SELECTIVE INHIBITORY ACTION ON KRAS OVER HRAS AND NRAS” (CHUGAI SEIYAKU KABUSHIKI KAISHA, priority 2021, published 2024):

Experiments:
[1] = biological target: GDP-bound NRAS wild-type protein (Homo sapiens, UniProt P01111); assay: Binding to NRAS by surface plasmon resonance (SPR), Single Cycle Kinetics; details: SPR, GDP-bound NRAS wild-type protein vs GDP-bound KRAS wild-type protein
[2] = biological target: GDP-bound KRAS wild-type protein (Homo sapiens, UniProt P01116); assay: Binding to KRAS by surface plasmon resonance (SPR), Single Cycle Kinetics; details: SPR, Single Cycle Kinetics, GDP-bound KRAS wild-type protein; read-out: KRAS KD
[3] = biological target: GDP-bound HRAS wild-type protein (Homo sapiens, UniProt P01112); assay: Binding to HRAS by surface plasmon resonance (SPR), Single Cycle Kinetics; details: SPR, GDP-bound HRAS wild-type protein vs GDP-bound KRAS wild-type protein
Sequence of GDP-bound HRAS wild-type protein (P01112 whole entry): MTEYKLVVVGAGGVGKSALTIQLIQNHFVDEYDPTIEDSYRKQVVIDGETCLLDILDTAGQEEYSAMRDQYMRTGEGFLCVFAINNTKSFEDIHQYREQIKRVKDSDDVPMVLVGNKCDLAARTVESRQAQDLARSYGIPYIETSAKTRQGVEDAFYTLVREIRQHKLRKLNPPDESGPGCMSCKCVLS

Sequence of GDP-bound KRAS wild-type protein (P01116 whole entry): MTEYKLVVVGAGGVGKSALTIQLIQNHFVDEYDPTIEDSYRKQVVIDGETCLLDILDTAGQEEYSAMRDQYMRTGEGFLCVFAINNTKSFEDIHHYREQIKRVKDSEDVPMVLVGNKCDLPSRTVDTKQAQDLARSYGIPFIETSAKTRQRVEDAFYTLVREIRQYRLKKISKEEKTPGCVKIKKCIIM
Sequence of GDP-bound NRAS wild-type protein (P01111 whole entry): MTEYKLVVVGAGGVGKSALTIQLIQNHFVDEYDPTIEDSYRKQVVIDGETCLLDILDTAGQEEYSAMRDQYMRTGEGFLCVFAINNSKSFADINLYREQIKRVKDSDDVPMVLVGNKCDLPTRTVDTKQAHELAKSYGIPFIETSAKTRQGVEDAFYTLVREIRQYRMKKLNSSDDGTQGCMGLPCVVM

Compound | NRAS/KRAS (ratio of KD value for NRAS to KD value for KRAS) [1] | Kd [2] [nM] | HRAS/KRAS (ratio of KD value for HRAS to KD value for KRAS) [3]
CCC[C@H]1C(=O)N[C@@H]([C@@H](C)CC)C(=O)N(C2CC2)CC(=O)N(C)[C@H]2C/C=C\CCN(C2=O)[C@@H](Cc2ccc(C(F)(F)F)cc2)C(=O)N(C)CC(=O)N[C@@H](CCc2cc(F)c(C(F)(F)F)c(F)c2)C(=O)N2C[C@H](OCC)C[C@H]2C(=O)NC2(CC(C)(C)C2)C(=O)N(C)[C@@H](C2CCCC2)C(=O)N(C)[C@H](C(=O)N(C)C)CC(=O)N1C [PP2101] | A (a compound having 10 or more and less than 20 is denoted as A) | 0.32 | B (a compound having 3 or more and less than 10 is denoted as B)
C=CCN1CC(=O)N(C)[C@H]2C/C=C\CCN(C2=O)[C@@H](Cc2ccc(C(F)(F)F)cc2)C(=O)N(C)CC(=O)N[C@@H](CCc2cc(F)c(C(F)(F)F)c(F)c2)C(=O)N2C[C@H](OCC)C[C@H]2C(=O)NC2(CC(C)(C)C2)C(=O)N(C)[C@@H](C2CCCC2)C(=O)N(C)[C@H](C(=O)N(C)C)CC(=O)N(C)[C@@H](CCC)C(=O)N[C@@H]([C@@H](C)CC)C1=O [PP2102] | A (a compound having 10 or more and less than 20 is denoted as A) | 0.16 | A (a compound having 10 or more and less than 20 is denoted as A)
C#CCN1CC(=O)N(C)[C@H]2C/C=C\CCN(C2=O)[C@@H](Cc2ccc(C(F)(F)F)cc2)C(=O)N(C)CC(=O)N[C@@H](CCc2cc(F)c(C(F)(F)F)c(F)c2)C(=O)N2C[C@H](OCC)C[C@H]2C(=O)NC2(CC(C)(C)C2)C(=O)N(C)[C@@H](C2CCCC2)C(=O)N(C)[C@H](C(=O)N(C)C)CC(=O)N(C)[C@@H](CCC)C(=O)N[C@@H]([C@@H](C)CC)C1=O [PP2103] | A (a compound having 10 or more and less than 20 is denoted as A) | 0.25 | A (a compound having 10 or more and less than 20 is denoted as A)
CCC[C@H]1C(=O)N[C@@H]([C@@H](C)CC)C(=O)N(C2CC2)CC(=O)N(C)[C@H]2C/C=C\CCN(C2=O)[C@@H](Cc2ccc(C(F)(F)F)cc2)C(=O)N(C)CC(=O)N[C@@H](CCc2ccc(C(F)(F)F)c(OC)c2)C(=O)N2C[C@H](OCC)C[C@H]2C(=O)NC2(CC(C)(C)C2)C(=O)N(C)[C@@H](C2CCCC2)C(=O)N(C)[C@H](C(=O)N(C)C)CC(=O)N1C [PP2105] | A (a compound having 10 or more and less than 20 is denoted as A) | 0.18 | A (a compound having 10 or more and less than 20 is denoted as A)
C=CCN1CC(=O)N(C)[C@H]2C/C=C\CCN(C2=O)[C@@H](Cc2ccc(C(F)(F)F)cc2)C(=O)N(C)CC(=O)N[C@@H](CCc2ccc(C(F)(F)F)c(OC)c2)C(=O)N2C[C@H](OCC)C[C@H]2C(=O)NC2(CC(C)(C)C2)C(=O)N(C)[C@@H](C2CCCC2)C(=O)N(C)[C@H](C(=O)N(C)C)CC(=O)N(C)[C@@H](CCC)C(=O)N[C@@H]([C@@H](C)CC)C1=O [PP2106] | A (a compound having 10 or more and less than 20 is denoted as A) | 0.2 | A (a compound having 10 or more and less than 20 is denoted as A)
C#CCN1CC(=O)N(C)[C@H]2C/C=C\CCN(C2=O)[C@@H](Cc2ccc(C(F)(F)F)cc2)C(=O)N(C)CC(=O)N[C@@H](CCc2ccc(C(F)(F)F)c(OC)c2)C(=O)N2C[C@H](OCC)C[C@H]2C(=O)NC2(CC(C)(C)C2)C(=O)N(C)[C@@H](C2CCCC2)C(=O)N(C)[C@H](C(=O)N(C)C)CC(=O)N(C)[C@@H](CCC)C(=O)N[C@@H]([C@@H](C)CC)C1=O [PP2107] | A (a compound having 10 or more and less than 20 is denoted as A) | 0.15 | A (a compound having 10 or more and less than 20 is denoted as A)
CCO[C@@H]1C[C@H]2C(=O)NC3(CCC3)C(=O)N(C)[C@@H](C3CCCC3)C(=O)N(C)[C@H](C(=O)N(C)CC)CC(=O)N(C)[C@H]3CCCCCc4ccc(cc4)C[C@@H](C(=O)N(C)CC(=O)N[C@@H](CCc4ccc(C(F)(F)F)c(OC)c4)C(=O)N2C1)N1CC/C=C\C[C@@H](C1=O)N(C)C(=O)CN(C)C(=O)[C@H]([C@@H](C)CC)NC3=O [PP2118] | A (a compound having 10 or more and less than 20 is denoted as A) | 0.15 | B (a compound having 3 or more and less than 10 is denoted as B)
CCO[C@@H]1C[C@H]2C(=O)NC3(CC(C)(C)C3)C(=O)N(C)[C@@H](C(CC)CC)C(=O)N(C)[C@H](C(=O)N(C)C)CC(=O)N(C)[C@@H](CC3CC3)C(=O)N[C@@H]([C@@H](C)CC)C(=O)N(C)CC(=O)N(C)[C@H]3C/C=C\CCN(C3=O)[C@@H](Cc3ccc(C(F)(F)F)cc3)C(=O)N(C)CC(=O)N[C@@H](CCc3cc(F)c(C(F)(F)F)c(F)c3)C(=O)N2C1 [PP2119] | A (a compound having 10 or more and less than 20 is denoted as A) | 5 | B (a compound having 3 or more and less than 10 is denoted as B)
CCO[C@@H]1C[C@H]2C(=O)NC3(CC(C)(C)C3)C(=O)N(C)[C@@H](C(CC)CC)C(=O)N(C)[C@H](C(=O)N(C)C)CC(=O)N(C)[C@@H](CC3CCC3)C(=O)N[C@@H]([C@@H](C)CC)C(=O)N(C)CC(=O)N(C)[C@H]3C/C=C\CCN(C3=O)[C@@H](Cc3ccc(C)cc3)C(=O)N(C)CC(=O)N[C@@H](CCc3ccc(Cl)c(Cl)c3)C(=O)N2C1 [PP2120] | AA (a compound having 20 or more is denoted as AA) | 0.91 | A (a compound having 10 or more and less than 20 is denoted as A)
CCO[C@@H]1C[C@H]2C(=O)NC3(CC(C)(C)C3)C(=O)N(C)[C@@H](C(CC)CC)C(=O)N(C)[C@H](C(=O)N(C)C)CC(=O)N(C)[C@@H](COC)C(=O)N[C@@H]([C@@H](C)CC)C(=O)N(C)CC(=O)N(C)[C@H]3C/C=C\CCN(C3=O)[C@@H](Cc3ccc(C(F)(F)F)cc3)C(=O)N(C)CC(=O)N[C@@H](CCc3cc(F)c(C(F)(F)F)c(F)c3)C(=O)N2C1 [PP2121] | AA (a compound having 20 or more is denoted as AA) | 1.5 | A (a compound having 10 or more and less than 20 is denoted as A)
CCO[C@@H]1C[C@H]2C(=O)NC3(CC(C)(C)C3)C(=O)N(C)[C@@H](C(CC)CC)C(=O)N(C)[C@H](C(=O)N(C)C)CC(=O)N(C)[C@@H](C(C)C)C(=O)N[C@@H]([C@@H](C)CC)C(=O)N(C)CC(=O)N(C)[C@H]3C/C=C\CCN(C3=O)[C@@H](Cc3ccc(C)cc3)C(=O)N(C)CC(=O)N[C@@H](CCc3ccc(Cl)c(Cl)c3)C(=O)N2C1 [PP2122] | AA (a compound having 20 or more is denoted as AA) | 1.4 | A (a compound having 10 or more and less than 20 is denoted as A)
CCO[C@@H]1C[C@H]2C(=O)NC3(CC(C)(C)C3)C(=O)N(C)[C@@H](C(CC)CC)C(=O)N(C)[C@H](C(=O)N3CCCC3)CC(=O)N(C)[C@@H](COC)C(=O)N[C@@H]([C@@H](C)CC)C(=O)N(C)CC(=O)N(C)[C@H]3C/C=C\CCN(C3=O)[C@@H](Cc3ccc(C(F)(F)F)cc3)C(=O)N(C)CC(=O)N[C@@H](CCc3cc(F)c(C(F)(F)F)c(F)c3)C(=O)N2C1 [PP2123] | A (a compound having 10 or more and less than 20 is denoted as A) | 0.25 | A (a compound having 10 or more and less than 20 is denoted as A)
CCO[C@@H]1C[C@H]2C(=O)NC3(CC(C)(C)C3)C(=O)N(C)[C@@H](C(CC)CC)C(=O)N(C)[C@H](C(=O)N(C)C)CC(=O)N(C)[C@@H](CC3CC3)C(=O)N[C@@H]([C@@H](C)CC)C(=O)N(C)CC(=O)N(C)[C@H]3C/C=C\CCN(C3=O)[C@@H](Cc3ccc(C(F)(F)F)cc3)C(=O)N(C)CC(=O)N[C@@H](CCc3ccc(C(F)(F)F)c(Cl)c3)C(=O)N2C1 [PP2124] | AA (a compound having 20 or more is denoted as AA) | 0.26 | A (a compound having 10 or more and less than 20 is denoted as A)
CCC[C@H]1C(=O)N[C@@H]([C@@H](C)CC)C(=O)N(C)CC(=O)N(C)[C@H]2C/C=C\CCN(C2=O)[C@@H](Cc2ccc(C(F)(F)F)cc2)C(=O)N(C)CC(=O)N[C@@H](CCc2cc(F)c(C(F)(F)F)c(F)c2)C(=O)N2C[C@H](OCC)C[C@H]2C(=O)NC2(CC(C)(C)C2)C(=O)N(C)[C@@H](C(CC)CC)C(=O)N(C)[C@H](C(=O)N(C)C)CC(=O)N1C [PP2125] | AA (a compound having 20 or more is denoted as AA) | 0.22 | A (a compound having 10 or more and less than 20 is denoted as A)
CCO[C@@H]1C[C@H]2C(=O)NC3(CC(C)(C)C3)C(=O)N(C)[C@@H](C(CC)CC)C(=O)N(C)[C@H](C(=O)N(C)C)CC(=O)N(C)[C@@H](COC)C(=O)N[C@@H]([C@@H](C)CC)C(=O)N(C)CC(=O)N(C)[C@H]3C/C=C\CCN(C3=O)[C@@H](Cc3ccc(C(F)(F)F)cc3)C(=O)N(C)CC(=O)N[C@@H](CCc3ccc(C(F)(F)F)c(Cl)c3)C(=O)N2C1 [PP2126] | A (a compound having 10 or more and less than 20 is denoted as A) | 0.23 | B (a compound having 3 or more and less than 10 is denoted as B)
